Data reported in paper PMC3832525, “A Cell-Free Fluorometric High-Throughput Screen for Inhibitors of Rtt109-Catalyzed Histone Acetylation” (PLoS ONE, 2013).
Blank lines part the entries; values can stand above or below the compound they belong to.

How the values were obtained:
Rtt109-Vps75 complex = target: T1, Rtt109-Vps75 complex (Saccharomyces cerevisiae, UniProt Q07794); assay: CPM-based fluorometric Rtt109-Vps75 HTS / dose-response assay; type: biochemical, S. cerevisiae
T1 construct: using two full-length physiologically relevant protein complexes; made in house
T1 sequence (Q07794 1-436): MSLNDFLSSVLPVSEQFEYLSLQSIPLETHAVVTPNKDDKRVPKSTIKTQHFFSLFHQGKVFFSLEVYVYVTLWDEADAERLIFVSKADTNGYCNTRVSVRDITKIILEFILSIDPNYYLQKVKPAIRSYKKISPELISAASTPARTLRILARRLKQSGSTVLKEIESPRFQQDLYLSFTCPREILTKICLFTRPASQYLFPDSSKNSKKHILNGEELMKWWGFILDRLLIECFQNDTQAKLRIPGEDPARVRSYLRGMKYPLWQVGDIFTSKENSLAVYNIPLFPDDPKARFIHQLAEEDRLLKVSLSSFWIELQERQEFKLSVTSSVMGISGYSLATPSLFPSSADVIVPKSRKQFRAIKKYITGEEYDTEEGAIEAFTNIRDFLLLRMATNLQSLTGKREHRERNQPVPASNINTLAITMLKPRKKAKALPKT
T1 sequence (P53853 1-264 partner): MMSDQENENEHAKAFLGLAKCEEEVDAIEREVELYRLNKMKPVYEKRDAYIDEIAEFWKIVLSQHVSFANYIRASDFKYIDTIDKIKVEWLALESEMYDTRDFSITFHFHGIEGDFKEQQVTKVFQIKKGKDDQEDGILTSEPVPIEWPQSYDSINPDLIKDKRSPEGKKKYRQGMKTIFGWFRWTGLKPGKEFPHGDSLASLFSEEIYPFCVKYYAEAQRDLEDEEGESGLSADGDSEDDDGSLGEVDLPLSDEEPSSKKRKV
Experimental: (§1) Compounds selected for dose-response analyses were tested in duplicate at eight compound concentrations, ranging from 40 nM to 125 µM final compound concentrations. Plate controls, dispensing steps and general assay procedures were unchanged from the aforementioned HTS procedures. Slot blots were performed using standard techniques with a Bio-Rad Bio-Dot SF microfiltration apparatus. Membranes were imaged with a LI-COR Odyssey and analyzed using Image Studio (LI-COR Biosciences). For the slot blot experiments, the assay plates included an additional plate control consisting of the Rtt109-Vps75 and Asf1-dH3-H4 complexes and no acetyl-CoA. Dose-response and slot blot experiments were replicated at least three times by independent experiments.

Rtt109 = system: Rtt109; parameters: method as in PMID 18568037; settings: ref [11]; cited from earlier work
[1] = target: T2, Rtt109-catalyzed histone acetylation (H3K56ac, H3K27ac, H3K9ac) (Saccharomyces cerevisiae, UniProt Q07794); assay: Orthogonal antibody-based slot blot assay of histone acetylation; type: biochemical, S. cerevisiae; settings: reaction aliquots
T2 construct: using two full-length physiologically relevant protein complexes; made in house
T2 sequence (Q07794 1-436): T1 sequence (Q07794 1-436)
T2 sequence (P53853 1-264 partner): T1 sequence (P53853 1-264 partner)
Experimental: as §1
This method utilizes modification-specific antibodies to detect changes in the actual histone acetylation, rather than the CoA by-product. […] Equal protein content was verified by Ponceau S staining (Figure 5B).

β-lactamase = settings: 10 µM
Experimental: Selected compounds were also de-risked for aggregation behavior using published procedures [55], except that the published assay buffer was again swapped for the HTS buffer. Rotterlin and lidocaine were used as a positive and negative compound controls, respectively [56]. Compounds were tested at 10 µM final concentrations in either the presence or absence of 0.01% Triton X-100.

p300 = settings: ref [69], [70]; cited from earlier work
PCAF = settings: ref [69], [70]; cited from earlier work

- signal reduction in HTS compound control wells (Rtt109-Vps75 complex; 10 µM final concentration): 50%
SMILES: O=C(O)C1=CC(=C(c2ccc(O)c(C(=O)O)c2)c2ccc(O)c(C(=O)O)c2)C=CC1=O [ATA, aurintricarboxylic acid]

SMILES: CC(=O)N[C@@H](CCCCNC(=O)CSCCNC(=O)CCNC(=O)[C@H](O)C(C)(C)COP(=O)(O)OP(=O)(O)OC[C@H]1O[C@@H](n2cnc3c(N)ncnc32)[C@H](O)[C@@H]1OP(=O)(O)O)C(N)=O [Lys-CoA]
- activity versus Rtt109 (Rtt109): have not shown activity

- histone acetylation by slot blot [1]: did not show any measureable decrease
SMILES: OC(Cn1cncn1)(Cn1cncn1)c1ccc(F)cc1F [fluconazole]
- activity against Rtt109-catalyzed histone acetylation in the CPM-based assay (Rtt109-Vps75 complex; dose-response, negative compound control): but not fluconazole, showed modest activity

SMILES: C=C(C)[C@@H](CC=C(C)C)C[C@@]12C[C@@H](CC=C(C)C)C(C)(C)[C@@](CC=C(C)C)(C(=O)C(C(=O)c3ccc(O)c(O)c3)=C1O)C2=O [garcinol]
- inhibition of β-lactamase activity, detergent present (β-lactamase; 0.01% Triton X-100): no such inhibition was observed
- inhibition of β-lactamase activity, detergent-free (β-lactamase; absence of detergent): only modest inhibition
- IC50 (p300): 7 µM
- H3K9ac by slot blot ([1]; modification-specific antibody): dose-dependent decreases
- H3K27ac by slot blot ([1]; modification-specific antibody): dose-dependent decreases
- H3K56ac by slot blot ([1]; modification-specific antibody): dose-dependent decreases
